pEC50: −log10 of the molar value.
How the values were obtained:
HRV 14 = experiment: microbe, parasite or virus in culture; assay type: cell-based, Human Rhinovirus 14 strain 1059; settings: for pEC50: Rhinovirus B, H1-HeLa, 48 h, read-out: HRV / H1 HeLa B 14 EC50
MEV = experiment: Antiviral activity against MEV; assay type: cell-based, MEV CC; settings: FIG. 1
Experimental: (§1) All other antiviral assays were run at Utah State/Justin Julander through NIAID Preclinical Services. The following virus strains and cell lines were used:
(§2) Compounds were added to cells prior to addition of virus at an appropriate MOI to cause visible CPE. […] For compounds with an SI.5, a virus yield reduction assay was conducted, where supernatant collected from the CPE assay was titered for virus. The EC90 was calculated as the amount of compound needed to reduce the virus titer by 1 log 10.

Polio PV-3 = assay type: cell-based, PV-3 WM-3
in vitro [1] = settings: human, mrc5 cells
CHIKV = experiment: microbe, parasite or virus in culture; assay type: cell-based, CHIKV strain 181/25; settings: for pEC50: Chikungunya virus, HepG2, 24 h, read-out: CHIKV / HepG2 EC50
HCoV-OC43 = experiment: microbe, parasite or virus in culture; assay type: cell-based, Human Coronavirus; settings: for pEC50: Betacoronavirus 1, OC43, HCT-8, 48 h, read-out: HCoV-OC43/HCT-8 EC50
in vitro [2] = settings: human, hepg2 cells
DENV-2 = experiment: microbe, parasite or virus in culture; assay type: cell-based, DENV-2 16681; settings: for pEC50: Dengue virus, DENV2, HepG2, 24 h, read-out: DENV-2 / HepG2 EC50; for SI (selectivity), DENV-2 HepG2 assay: SI=CC50/EC50
COXV-B3 = experiment: Antiviral activity against COXV-B3; assay type: cell-based, COXV-B3 HA 201933; settings: COXV-B3, FIG. 1
Experimental: as §1, §2

YFV = experiment: microbe, parasite or virus in culture; assay type: cell-based, YFV strain 17D; settings: for pEC50: Yellow fever virus, HepG2, 24 h, read-out: YFV / HepG2 EC50
in vitro [3] = settings: human, hela-ace2 cells
SARS-CoV-2 = experiment: microbe, parasite or virus in culture; assay type: cell-based, SARS-CoV-2 strain USA-WA1/2020; settings: for pEC50: Severe acute respiratory syndrome coronavirus 2, HeLa-ACE2, 24 h, read-out: SARS-CoV-2 / HeLa-ACE2 EC50
ZIKV = experiment: microbe, parasite or virus in culture; assay type: cell-based, ZIKV MR766; settings: for pEC50: Zika virus, HepG2, 24 h, read-out: ZIKV / HepG2 EC50
in vitro [4] = settings: human, hep2 cells
Cytotoxicity, HFF = assay type: cell-based; settings: human, hff cells; read-out: HCMV/HFF CC50
HRV 16 = experiment: microbe, parasite or virus in culture; assay type: cell-based, Human Rhinovirus 16 strain 11757; settings: for pEC50: Rhinovirus A, H1-HeLa, 48 h, read-out: HRV / H1 HeLa A16 EC50
RSV A2 = experiment: microbe, parasite or virus in culture; assay type: cell-based; settings: for pEC50: human respiratory syncytial virus, HEp-2, 72 h, read-out: RSV A2 / Hep2 EC50
MERS-CoV = assay type: cell-based, MERS-CoV EMC
Flu A H1N1 = experiment: Antiviral activity against Flu A H1N1; assay type: cell-based, Flu A H1N1 California/07/2009; settings: Flu A H1N1, FIG. 1
Experimental: as §1, §2

SARS-CoV-1 = assay type: cell-based
Polio PV-1 = assay type: cell-based, PV-1 CHAT
HCMV = experiment: HCMV/HFF antiviral assay; assay type: cell-based; settings: Human betaherpesvirus 5, HFF
in vitro [5] = settings: human, h1 hela cells
HCoV-229E = experiment: microbe, parasite or virus in culture; assay type: cell-based; settings: for pEC50: Human coronavirus 229E, MRC5, 120 h, read-out: HCoV-229E/MRC5 EC50
in vitro [6] = settings: human, hct-8 cells
[7] = cited from earlier work
DENV = settings: cited from earlier work
dengue [8] = settings: cited from earlier work
[9] = system: dengue 2′-0-methyltransferase NS5 domain; settings: role: inhibitor; cited from earlier work
[10] = mouse or rhesus monkey model; cited from earlier work
RNA virus infections = settings: cited from earlier work
dengue [11] = settings: cited from earlier work; remark: listed apart in the source
dengue [12] = settings: cited from earlier work; remark: listed apart in the source
[13] = Cytotoxicity from screening; assay type: cell-based

Nc1ncnc2c1ccn2[C@@H]1O[C@](F)(CO)[C@@H](O)[C@H]1O [Example 1, (2S,3S,4R,5R)-5-(4-amino-7H-pyrrolo[2,3-d]pyrimidin-7-yl)-2-fluoro-2-(hydroxymethyl)tetrahydrofuran-3,4-diol]
efficacy vs RDV parent nucleosides and N-hydroxycytidine, HRV14 (HRV 14; HRV14, FIG. 1): more efficacious than RDV parent nucleosides and N-hydroxycytidine | pEC50 (HRV 14): 6.00 to 7.00 | efficacy vs RDV parent nucleosides and N-hydroxycytidine, MEV (MEV): more efficacious than RDV parent nucleosides and N-hydroxycytidine | efficacy vs RDV parent nucleosides and N-hydroxycytidine, Polio PV-3 (Polio PV-3): more efficacious than RDV parent nucleosides and N-hydroxycytidine | CC50 (in vitro [1]): 10000 to 99000 nM | pEC50 (CHIKV): > 7.00 | efficacy vs RDV parent nucleosides and N-hydroxycytidine, CHIKV (CHIKV; alphavirus CHIKV, FIG. 1): more efficacious than RDV parent nucleosides and N-hydroxycytidine | pEC50 (HCoV-OC43): 6.00 to 7.00 | efficacy vs RDV parent nucleosides and N-hydroxycytidine, HCoV-OC43 (HCoV-OC43; HCoV-OC43, FIG. 1): more efficacious than RDV parent nucleosides and N-hydroxycytidine | CC50 at 72 h (in vitro [2]): 1000 to 10000 nM | activities and selectivity vs known compounds with the same MOA, DENV (DENV-2; DENV): improved activities and selectivity | activities and selectivity compared to tubercidin and NITD-008 (DENV-2; DENV2 HepG2 assay): improved activities and selectivity compared to tubercidin and NITD-008 | efficacy vs RDV parent nucleosides and N-hydroxycytidine, DENV-2 (DENV-2; DENV-2, FIG. 1): more efficacious than RDV parent nucleosides and N-hydroxycytidine | pEC50 (DENV-2): > 7.00 | efficacy vs RDV parent nucleosides and N-hydroxycytidine, COXV-B3 (COXV-B3): more efficacious than RDV parent nucleosides and N-hydroxycytidine | efficacy vs RDV parent nucleosides and N-hydroxycytidine, YFV (YFV): more efficacious than RDV parent nucleosides and N-hydroxycytidine | pEC50 (YFV): > 7.00 | CC50 at 24 h (in vitro [3]): 1000 to 10000 nM | activities and selectivity vs known compounds with the same MOA, SARS-CoV-2 (SARS-CoV-2; SARS-CoV-2): improved activities and selectivity | efficacy vs RDV parent nucleosides and N-hydroxycytidine, SARS-CoV-2 (SARS-CoV-2; SARS-CoV-2, FIG. 1): more efficacious than RDV parent nucleosides and N-hydroxycytidine | pEC50 (SARS-CoV-2): > 7.00 | efficacy vs RDV parent nucleosides and N-hydroxycytidine, ZIKV (ZIKV; ZIKV, FIG. 1): more efficacious than RDV parent nucleosides and N-hydroxycytidine | pEC50 (ZIKV): > 7.00 | CC50 (in vitro [4]): 1000 to 10000 nM | CC50 (Cytotoxicity, HFF): 1000 to 10000 nM | efficacy vs RDV parent nucleosides and N-hydroxycytidine, HRV16 (HRV 16; HRV16, FIG. 1): more efficacious than RDV parent nucleosides and N-hydroxycytidine | pEC50 (HRV 16): 6.00 to 7.00 | efficacy vs RDV parent nucleosides and N-hydroxycytidine, RSV A2 (RSV A2; RSV A2, FIG. 1): more efficacious than RDV parent nucleosides and N-hydroxycytidine | pEC50 (RSV A2): > 7.00 | efficacy vs RDV parent nucleosides and N-hydroxycytidine, MERS-CoV (MERS-CoV): more efficacious than RDV parent nucleosides and N-hydroxycytidine | efficacy vs RDV parent nucleosides and N-hydroxycytidine, Flu A H1N1 (Flu A H1N1): more efficacious than RDV parent nucleosides and N-hydroxycytidine | efficacy vs RDV parent nucleosides and N-hydroxycytidine, SARS-CoV-1 (SARS-CoV-1): more efficacious than RDV parent nucleosides and N-hydroxycytidine | efficacy vs RDV parent nucleosides and N-hydroxycytidine, Polio PV-1 (Polio PV-1): more efficacious than RDV parent nucleosides and N-hydroxycytidine | pEC50 (HCMV): 5.00 to 6.00 | CC50 (in vitro [5]): 1000 to 10000 nM | efficacy vs RDV parent nucleosides and N-hydroxycytidine, HCoV-229E (HCoV-229E; HCoV-229E, FIG. 1): more efficacious than RDV parent nucleosides and N-hydroxycytidine | pEC50 (HCoV-229E): 6.00 to 7.00 | CC50 (in vitro [6]): 1000 to 10000 nM

OC[C@@]1(F)O[C@@H](n2ccc3c(Cl)ncnc32)[C@H](O)[C@@H]1O [Example 4, (2S,3S,4R,5R)-5-(4-chloro-7H-pyrrolo[2,3-d]pyrimidin-7-yl)-2-fluoro-2-(hydroxymethyl)tetrahydrofuran-3,4-diol]
pEC50 (HRV 14): 6.00 to 7.00 | CC50 (in vitro [1]): > 99000 nM | pEC50 (CHIKV): 6.00 to 7.00 | pEC50 (HCoV-OC43): 6.00 to 7.00 | CC50 at 72 h (in vitro [2]): 10000 to 99000 nM | pEC50 (DENV-2): > 7.00 | pEC50 (YFV): > 7.00 | CC50 at 24 h (in vitro [3]): 10000 to 99000 nM | pEC50 (SARS-CoV-2): 5.00 to 6.00 | pEC50 (ZIKV): 6.00 to 7.00 | CC50 (in vitro [4]): 10000 to 99000 nM | CC50 (Cytotoxicity, HFF): 10000 to 99000 nM | pEC50 (HRV 16): 6.00 to 7.00 | pEC50 (RSV A2): 6.00 to 7.00 | pEC50 (HCMV): < 5.00 | CC50 (in vitro [5]): 10000 to 99000 nM | pEC50 (HCoV-229E): < 5.00 | CC50 (in vitro [6]): 10000 to 99000 nM

NC(=O)c1cn([C@@H]2O[C@](F)(CO)[C@@H](O)[C@H]2O)c2ncncc12 [Example 24, 7-((2R,3R,4S,5S)-5-fluoro-3,4-dihydroxy-5-(hydroxymethyl)tetrahydrofuran-2-yl)-7H-pyrrolo[2,3-d]pyrimidine-5-carboxamide]
pEC50 (HRV 14): 5.00 to 6.00 | CC50 (in vitro [1]): > 99000 nM | pEC50 (HCoV-OC43): 6.00 to 7.00 | CC50 at 72 h (in vitro [2]): 1000 to 10000 nM | pEC50 (DENV-2): > 7.00 | pEC50 (YFV): 6.00 to 7.00 | CC50 at 24 h (in vitro [3]): 1000 to 10000 nM | pEC50 (SARS-CoV-2): 6.00 to 7.00 | pEC50 (ZIKV): 6.00 to 7.00 | CC50 (in vitro [4]): 10000 to 99000 nM | CC50 (Cytotoxicity, HFF): 10000 to 99000 nM | pEC50 (HRV 16): < 5.00 | pEC50 (RSV A2): 6.00 to 7.00 | pEC50 (HCMV): < 5.00 | CC50 (in vitro [5]): 10000 to 99000 nM | pEC50 (HCoV-229E): < 5.00 | CC50 (in vitro [6]): 10000 to 99000 nM

OC[C@@]1(F)O[C@@H](n2cc(Br)c3cncnc32)[C@H](O)[C@@H]1O [Example 25, (2S,3S,4R,5R)-5-(5-bromo-7H-pyrrolo[2,3-d]pyrimidin-7-yl)-2-fluoro-2-(hydroxymethyl)tetrahydrofuran-3,4-diol]
pEC50 (HRV 14): < 5.00 | CC50 (in vitro [1]): > 99000 nM | pEC50 (HCoV-OC43): 6.00 to 7.00 | CC50 at 72 h (in vitro [2]): < 1000 nM | pEC50 (DENV-2): > 7.00 | pEC50 (YFV): > 7.00 | CC50 at 24 h (in vitro [3]): < 1000 nM | pEC50 (SARS-CoV-2): 6.00 to 7.00 | pEC50 (ZIKV): > 7.00 | CC50 (in vitro [4]): 10000 to 99000 nM | CC50 (Cytotoxicity, HFF): > 99000 nM | pEC50 (HRV 16): < 5.00 | pEC50 (RSV A2): 6.00 to 7.00 | pEC50 (HCMV): 5.00 to 6.00 | CC50 (in vitro [5]): 1000 to 10000 nM | pEC50 (HCoV-229E): < 5.00 | CC50 (in vitro [6]): < 1000 nM

C#C[C@@]1(O)[C@H](O)[C@@H](CO)O[C@H]1n1ccc2c(N)ncnc21 [NITD-008, reference compound]
two-week tox study outcome [7]: failed | SI (selectivity), DENV-2 HepG2 assay (DENV-2): 52 | selectivity compared to tubercidin (DENV-2; DENV-2 HepG2 assay, FIG. 1): improved selectivity compared to tubercidin | efficacy in DENV-infected mouse model (DENV): good efficacy

NC(=O)c1ncn([C@@H]2O[C@H](CO)[C@@H](O)[C@H]2O)n1 [Ribavirin]
protection against dengue, mouse model (dengue [8]): did not show protection | inhibition of dengue 2′-0-methyltransferase NS5 domain [9]: inhibiting | adverse effects induced [10]: induced anemia and thrombocytosis | effect against a range of RNA virus infections (RNA virus infections): effective | activity against dengue in tissue culture (dengue [11]): works against dengue in tissue culture | protection against dengue, rhesus monkey model (dengue [12]): did not show protection

Nc1ncnc2c1ccn2[C@@H]1O[C@H](CO)[C@@H](O)[C@H]1O [Tubercidin, reference compound]
cytotoxicity from screening [13]: significant cytotoxicity | antiviral potency against DENV (DENV-2; DENV, screening): high antiviral potency | SI (selectivity), DENV-2 HepG2 assay (DENV-2): 2 | antiviral potency against SARS-CoV-2 (SARS-CoV-2; SARS-CoV-2, screening): high antiviral potency
